Read-outs that look alike come from different tables or passages of the source.
How the values were obtained:
[1] = target: ABL (Homo sapiens, UniProt P00519); conditions: at therapeutic doses; cited from earlier work
[2] = test system: adults with active RA;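 also: Open-label phase 2a trial, oral dosing twice daily, incidence of drug-related AEs (>4%) by intensity per Common Toxicity Criteria v3.0, initial 12-week and extension phases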
Procedure: Safety was assessed by occurrence of adverse events (AE), SAEs, and monitoring biochemical, haematological and urinalysis parameters during the study period, with toxicity graded according to the Common Toxicity Criteria version 3.0.

[3] = test system: cell lines dependent on c-Kit signaling; conditions: cited from earlier work
[4] = test system: c-kit; conditions: cited from earlier work
[5] = target: Src (Homo sapiens, UniProt P12931); conditions: at therapeutic doses; cited from earlier work
Src, sequence (P12931 whole entry): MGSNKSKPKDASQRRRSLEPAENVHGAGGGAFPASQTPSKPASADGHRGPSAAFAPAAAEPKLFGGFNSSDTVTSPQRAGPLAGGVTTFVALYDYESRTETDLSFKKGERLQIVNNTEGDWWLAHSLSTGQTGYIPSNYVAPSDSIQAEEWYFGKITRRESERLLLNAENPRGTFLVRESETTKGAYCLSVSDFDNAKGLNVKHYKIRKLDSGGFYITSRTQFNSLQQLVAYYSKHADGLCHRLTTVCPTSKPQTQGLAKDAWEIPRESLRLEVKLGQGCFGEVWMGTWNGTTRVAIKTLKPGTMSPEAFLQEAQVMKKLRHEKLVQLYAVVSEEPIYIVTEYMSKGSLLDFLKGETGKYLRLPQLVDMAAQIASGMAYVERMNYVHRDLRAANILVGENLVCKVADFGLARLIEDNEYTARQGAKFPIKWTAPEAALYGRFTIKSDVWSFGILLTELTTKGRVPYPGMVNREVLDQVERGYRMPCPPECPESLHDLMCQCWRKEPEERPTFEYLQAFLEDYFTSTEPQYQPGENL

[6] = target: Lyn (Homo sapiens, UniProt P07948); conditions: cited from earlier work
Lyn, sequence (P07948 whole entry): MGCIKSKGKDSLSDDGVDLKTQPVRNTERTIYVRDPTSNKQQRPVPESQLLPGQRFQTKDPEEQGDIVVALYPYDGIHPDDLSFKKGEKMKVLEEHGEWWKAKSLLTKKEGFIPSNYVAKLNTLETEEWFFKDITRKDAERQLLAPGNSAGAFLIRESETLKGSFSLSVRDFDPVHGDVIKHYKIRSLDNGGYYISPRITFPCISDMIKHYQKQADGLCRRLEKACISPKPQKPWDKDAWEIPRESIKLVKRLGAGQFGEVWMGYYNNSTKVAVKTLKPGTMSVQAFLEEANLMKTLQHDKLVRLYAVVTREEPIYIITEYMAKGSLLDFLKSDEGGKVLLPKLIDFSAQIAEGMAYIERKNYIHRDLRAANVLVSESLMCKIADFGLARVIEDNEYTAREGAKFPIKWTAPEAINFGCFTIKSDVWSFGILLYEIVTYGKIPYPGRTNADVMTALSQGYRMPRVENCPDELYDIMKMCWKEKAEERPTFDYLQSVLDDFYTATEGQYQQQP

[7] = test system: human cord blood MCs; conditions: cited from earlier work
[8] = test system: PDGFR; conditions: cited from earlier work

ABL, sequence (P00519 whole entry): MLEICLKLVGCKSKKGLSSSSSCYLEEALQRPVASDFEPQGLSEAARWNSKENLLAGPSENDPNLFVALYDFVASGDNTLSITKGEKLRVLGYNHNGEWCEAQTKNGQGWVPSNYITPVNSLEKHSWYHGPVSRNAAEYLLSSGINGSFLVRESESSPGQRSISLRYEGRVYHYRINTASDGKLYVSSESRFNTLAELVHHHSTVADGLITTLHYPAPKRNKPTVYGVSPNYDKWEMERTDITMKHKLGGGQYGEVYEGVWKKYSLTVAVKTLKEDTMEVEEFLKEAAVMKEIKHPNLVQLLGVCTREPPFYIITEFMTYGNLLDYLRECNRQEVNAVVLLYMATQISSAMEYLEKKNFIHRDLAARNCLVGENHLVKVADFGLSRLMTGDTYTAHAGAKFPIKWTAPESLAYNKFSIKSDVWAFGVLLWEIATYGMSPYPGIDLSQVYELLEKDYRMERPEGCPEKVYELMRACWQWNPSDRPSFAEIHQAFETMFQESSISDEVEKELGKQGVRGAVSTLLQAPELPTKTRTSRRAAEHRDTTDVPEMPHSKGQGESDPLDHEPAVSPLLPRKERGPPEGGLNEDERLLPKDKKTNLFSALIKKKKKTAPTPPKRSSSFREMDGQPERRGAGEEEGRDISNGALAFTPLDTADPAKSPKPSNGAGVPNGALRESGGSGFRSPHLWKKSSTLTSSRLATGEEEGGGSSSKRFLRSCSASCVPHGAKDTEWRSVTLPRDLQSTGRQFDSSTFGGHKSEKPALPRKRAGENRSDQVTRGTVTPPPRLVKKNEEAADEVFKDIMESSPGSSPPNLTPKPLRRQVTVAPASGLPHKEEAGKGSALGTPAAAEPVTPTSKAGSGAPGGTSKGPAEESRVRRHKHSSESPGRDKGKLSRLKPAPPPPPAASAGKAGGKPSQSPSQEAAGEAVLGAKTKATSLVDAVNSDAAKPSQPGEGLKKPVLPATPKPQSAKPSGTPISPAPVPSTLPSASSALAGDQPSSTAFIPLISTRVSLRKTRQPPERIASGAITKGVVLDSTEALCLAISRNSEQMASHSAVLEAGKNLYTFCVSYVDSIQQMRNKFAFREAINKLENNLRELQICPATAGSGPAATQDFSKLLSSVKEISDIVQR

## Cc1ccc(NC(=O)c2ccc(CN3CCN(C)CC3)cc2)cc1Nc1nc(-c2cccnc2)cs1 [masitinib, 4-(4-methylpiperazin-1-ylmethyl)-N-[4-methyl-3-(4-pyridin-3ylthiazol-2-ylamino)phenyl]benzamide]
[1]
  Inhibition of ABL: without inhibiting
[2]; 6 mg/kg/day, one patient
  ALAT in the patient with hepatic disorder: 188
  ASAT in the patient with hepatic disorder: 122
  Treatment time to occurrence of severe transaminases increase AE: 14 days
  alkaline phosphatase in the patient with hepatic disorder: 635
[2]; Extension phase, All (n = 21)
  Suspected AE: Aphthous Stomatitis: 1 (4.8%)
  Suspected AE: Asthenia: 1 (4.8%)
  Suspected AE: Bronchopneumopathy: 1 (4.8%)
  Suspected AE: Eczema: 1 (4.8%)
  Suspected AE: Edema - All: 2 (9.5%)
  Suspected AE: Gastroenteritis: 1 (4.8%)
  Suspected AE: Leukopenia: 1 (4.8%)
  Suspected AE: Liver Disorder: 1 (4.8%)
  Suspected AE: Nasopharyngitis: 1 (4.8%)
  Suspected AE: Neutrophil Count Decreased: 1 (4.8%)
  Suspected AE: Onychoclasis: 1 (4.8%)
  Suspected AE: Photosensitivity Reaction: 1 (4.8%)
  Suspected AE: Pleural Effusion: 1 (4.8%)
  Suspected AE: Pyrexia: 1 (4.8%)
  Suspected AE: Rheumatoid Arthritis: 1 (4.8%)
  Suspected AE: Rhinitis: 1 (4.8%)
  Suspected AE: Vertigo: 1 (4.8%)
[2]; Extension phase, Mild
  Subjects with At least one suspected AE: 4 (19.0%)
  Suspected AE: Aphthous Stomatitis: 1 (4.8%)
  Suspected AE: Asthenia: 1 (4.8%)
  Suspected AE: Eczema: 1 (4.8%)
  Suspected AE: Gastroenteritis: 1 (4.8%)
  Suspected AE: Nasopharyngitis: 1 (4.8%)
  Suspected AE: Neutrophil Count Decreased: 1 (4.8%)
  Suspected AE: Onychoclasis: 1 (4.8%)
  Suspected AE: Photosensitivity Reaction: 1 (4.8%)
  Suspected AE: Pyrexia: 1 (4.8%)
  Suspected AE: Rhinitis: 1 (4.8%)
[2]; Extension phase, Moderate
  Subjects with At least one suspected AE: 3 (14.3%)
  Suspected AE: Edema - All: 2 (9.5%)
  Suspected AE: Leukopenia: 1 (4.8%)
  Suspected AE: Vertigo: 1 (4.8%)
[2]; Extension phase, Severe
  Suspected AE: Bronchopneumopathy: 1 (4.8%)
  Suspected AE: Liver Disorder: 1 (4.8%)
  Suspected AE: Pleural Effusion: 1 (4.8%)
  Suspected AE: Rheumatoid Arthritis: 1 (4.8%)
[2]; Initial Phase, All (n = 43)
  Suspected AE: Abdominal Pain: 2 (4.7%)
  Suspected AE: Abdominal Pain Upper: 5 (11.6%)
  Suspected AE: Alopecia: 2 (4.7%)
  Suspected AE: Asthenia: 5 (11.6%)
  Suspected AE: Blood Creatinine Increased: 2 (4.7%)
  Suspected AE: Cough: 2 (4.7%)
  Suspected AE: Diarrhea: 8 (18.6%)
  Suspected AE: Dry Mouth: 2 (4.7%)
  Suspected AE: Dyspnoea: 3 (7.0%)
  Suspected AE: Edema - All: 11 (25.6%)
  Suspected AE: Gastroenteritis: 2 (4.7%)
  Suspected AE: Headache: 6 (14.0%)
  Suspected AE: Herpes Simplex: 3 (7.0%)
  Suspected AE: Hyperthermia: 2 (4.7%)
  Suspected AE: Nausea: 10 (23.3%)
  Suspected AE: Petechiae: 2 (4.7%)
  Suspected AE: Pyrexia: 3 (7.0%)
  Suspected AE: Rash - All: 13 (30.2%)
  Suspected AE: Vomiting: 5 (11.6%)
  Suspected AE: Weight Decreased: 3 (7.0%)
[2]; Initial Phase, Mild
  Subjects with At least one suspected AE: 29 (67.4%)
  Suspected AE: Abdominal Pain: 1 (2.3%)
  Suspected AE: Abdominal Pain Upper: 4 (9.3%)
  Suspected AE: Alopecia: 2 (4.7%)
  Suspected AE: Blood Creatinine Increased: 1 (2.3%)
  Suspected AE: Cough: 1 (2.3%)
  Suspected AE: Diarrhea: 5 (11.6%)
  Suspected AE: Dry Mouth: 1 (2.3%)
  Suspected AE: Dyspnoea: 1 (2.3%)
  Suspected AE: Edema - All: 2 (4.7%)
  Suspected AE: Headache: 4 (9.3%)
  Suspected AE: Herpes Simplex: 2 (4.7%)
  Suspected AE: Nausea: 6 (14.0%)
  Suspected AE: Petechiae: 1 (2.3%)
  Suspected AE: Pyrexia: 1 (2.3%)
  Suspected AE: Rash - All: 7 (16.3%)
  Suspected AE: Vomiting: 1 (2.3%)
  Suspected AE: Weight Decreased: 2 (4.7%)
[2]; Initial Phase, Moderate
  Subjects with At least one suspected AE: 27 (62.8%)
  Suspected AE: Abdominal Pain Upper: 1 (2.3%)
  Suspected AE: Asthenia: 4 (9.3%)
  Suspected AE: Blood Creatinine Increased: 1 (2.3%)
  Suspected AE: Cough: 1 (2.3%)
  Suspected AE: Diarrhea: 2 (4.7%)
  Suspected AE: Dyspnoea: 1 (2.3%)
  Suspected AE: Edema - All: 6 (14.0%)
  Suspected AE: Gastroenteritis: 2 (4.7%)
  Suspected AE: Headache: 2 (4.7%)
  Suspected AE: Herpes Simplex: 1 (2.3%)
  Suspected AE: Hyperthermia: 1 (2.3%)
  Suspected AE: Nausea: 5 (11.6%)
  Suspected AE: Petechiae: 1 (2.3%)
  Suspected AE: Pyrexia: 1 (2.3%)
  Suspected AE: Rash - All: 8 (18.6%)
  Suspected AE: Vomiting: 4 (9.3%)
  Suspected AE: Weight Decreased: 1 (2.3%)
[2]; Initial Phase, Severe
  Suspected AE: Abdominal Pain: 1 (2.3%)
  Suspected AE: Asthenia: 1 (2.3%)
  Suspected AE: Diarrhea: 1 (2.3%)
  Suspected AE: Dry Mouth: 1 (2.3%)
  Suspected AE: Dyspnoea: 1 (2.3%)
  Suspected AE: Edema - All: 3 (7.0%)
  Suspected AE: Hyperthermia: 1 (2.3%)
  Suspected AE: Pyrexia: 1 (2.3%)
[2]; Total population, of 16 discontinued
  Early study discontinuation: Adverse event: 13/16
[2]; after first drug intake or dose increase
  Median onset time of edematous episodes: 28 days
[2]; after week 12 (extension phase, n = 21)
  Incidence of skin rash, nausea, vomiting or diarrhea: no incidence
[2]; extension phase versus initial phase
  Decrease in occurrence of edema: > 60%
[2]; human, in vivo
  Average time within which edematous episodes abated: ≤ 16 days
[2]; in vivo
  Doses associated with the majority of severe AEs: ≥ 7.5 mg/kg/day
[2]; initial dosage 3 mg/kg/day, of 7 discontinued
  Early study discontinuation: Adverse event: 6/7
[2]; initial dosage 6 mg/kg/day, of 9 discontinued
  Early study discontinuation: Adverse event: 7/9
[2]; initial phase, of 43 patients
  Patients discontinuing treatment with occurrence of AEs as main reason: 30%
[2]; n = 43
  Deaths during the study: no deaths occurred
[2]; n = 43, skin rash, pleural effusion, pneumonia, RA flare up
  Patients with non-fatal SAE of severe intensity suspected to be related to masitinib (or not assessable): 9%
[2]; one patient, no reoccurrence following reintroduction
  Time to resolution of severe transaminases increase AE after drug withdrawal: ≤ 4 weeks
[3]
  Effect on cell lines dependent on c-Kit signaling: cell cycle arrest and apoptosis
[4]
  Effect on wild-type and juxtamembrane-mutated c-Kit receptors: strong inhibitory effect
  Inhibition of c-kit: selectively inhibiting
[5]
  Inhibition of Src: without inhibiting
[6]
  Inhibition of Lyn: selectively inhibiting
[7]
  FcεRI-mediated degranulation: inhibition
[8]
  Inhibition of PDGFR: selectively inhibiting
